Assay results: patent US20050069887A1, “Dna synthesis promoters dna polymerase-associated factors and utilization thereof” (priority 2001, published 2005)
Where two headings read alike, the source gives them in different places.

Assays:
Taq DNA polymerase = target: T1, Taq DNA polymerase (Thermus aquaticus, UniProt P19821); assay: PCR using Taq DNA polymerase with added oxalate ion (Example 1-4); assay type: biochemical; conditions: for PCR amplification of 4.5-kb DNA of myelin oligodendrocyte glycoprotein: FIG. 5; for PCR amplification of 3.6-kb DNA of β-globin: FIG. 4
T1 construct: purchased TOYOBO CO., LTD
Procedure: The effect produced by the addition of oxalate ions was investigated in PCR using Taq DNA polymerase. A PCR buffer (10 mM Tris-HCl (pH 8.3), 50 mM KCl, 1.5 mM MgCl2) attached to Taq (TOYOBO CO., LTD.), 0.2 mM dNTPs and 0.3 μM of a primer pair were used. A pair of primers of SEQ ID Nos:10 and 11 was used for the PCR amplification of a 3.6-kb DNA of β-globin cluster (the electrophoresis pattern of its PCR product is shown in FIG. 4), while a pair of primers of SEQ ID Nos:12 and 13 was used for the PCR amplification of a 4.5-kb DNA of myelin oligodendrocyte glycoprotein (the electrophoresis pattern of its PCR product is shown in FIG. 5). The influence of varying the concentration of oxalate ions added on the PCR results was investigated using 2.5 U Taq DNA polymerase and 20 ng of Genomic DNA derived from cultured human cell K562 as a template. The PCR conditions were as follows: 94° C. for 2 minutes as 1 preliminary reaction, and then 30 cycles of 94° C. for 15 seconds, 60° C. for 30 seconds and 68° C. for 8 minutes. The PCR amplification was performed by using GeneAmp 2400 (PE Applied Biosystems).

EX-Taq DNA polymerase = assay: PCR using EX-Taq DNA polymerase with added salts (Examples 1-1 to 1-3); assay type: biochemical
Procedure: The effect produced by the addition of oxalate ions was investigated in the PCR using EX-Taq DNA polymerase. A PCR buffer supplied with EX-Taq (TAKARA) and 0.3 μM of a pair of primers of SEQ ID Nos:8 and 9 and 0.2 mM dNTPs were used. PCR was performed by using 1.0 U EX-Taq DNA polymerase and 20 ng of genomic DNA derived from human cell line K562 as a template, with the influence on the PCR result caused by varying the concentration of added oxalate ion being investigated. The PCR conditions were as follows: 1 preliminary reaction of 94° C. for 2 minutes, and then 35 cycles of 94° C. for 15 seconds, 60° C. for 30 seconds and 68° C. for 8.5 minutes. This PCR amplification was performed by using GeneAmp2400 (PE Applied Biosystems).
Salts (potassium chloride, potassium acetate, potassium oxalate, sodium oxalate, potassium sulfate) were investigated for their effectiveness in PCR using EX-Taq DNA polymerase under the same conditions as Example 1. Each salts was used in an amount of 4 to 6 mM of ion equivalent

KOD-plus DNA polymerase [1] = target: T2, KOD-plus DNA polymerase (Thermococcus kodakarensis, UniProt P77933, DEL407-766/DEL853-1389); assay type: biochemical, Thermococcus kodakaraensis KOD1
T2 construct: purchased Toyobo
Procedure: The effect produced by the addition of oxalate ion to a hot start enzyme was investigated using a hot start enzyme KOD-plus DNA polymerase containing KOD α-type enzyme) and two kinds of KOD antibodies. The PCR buffer supplied with KOD-plus (manufactured by Toyobo), 0.2 mM dNTPs and 0.3 μM of a primer pair of SEQ ID Nos:8 and 9 were used. PCR was performed using 2.5 U KOD-plus DNA polymerase and 20 ng of Genomic DNA derived from human cell line K562 as a template to investigate the influence of varying the concentration of oxalate ion added on the PCR results. The PCR conditions were as follows: 1 preliminary reaction of 94° C. for 2 minutes, and then 35 cycles of 94° C. for 15 seconds, 60° C. for 30 seconds and 68° C. for 8.5 minutes. The PCR was performed using GeneAmp2400 (PE Applied Biosystems).

nPfu DNA polymerase = target: T3, nPfu DNA polymerase (Pyrococcus furiosus, UniProt P61875); assay: PCR using nPfu DNA polymerase with added salts (Examples 1-5, 1-6); assay type: biochemical; conditions: for amplification of target DNA (electrophoresis pattern): salt at 4-6 mM of ion equivalent, FIG. 7
T3 construct: α-Type Enzyme (Native Pfu); purchased STRATAGENE
T3 sequence (P61875 1-775): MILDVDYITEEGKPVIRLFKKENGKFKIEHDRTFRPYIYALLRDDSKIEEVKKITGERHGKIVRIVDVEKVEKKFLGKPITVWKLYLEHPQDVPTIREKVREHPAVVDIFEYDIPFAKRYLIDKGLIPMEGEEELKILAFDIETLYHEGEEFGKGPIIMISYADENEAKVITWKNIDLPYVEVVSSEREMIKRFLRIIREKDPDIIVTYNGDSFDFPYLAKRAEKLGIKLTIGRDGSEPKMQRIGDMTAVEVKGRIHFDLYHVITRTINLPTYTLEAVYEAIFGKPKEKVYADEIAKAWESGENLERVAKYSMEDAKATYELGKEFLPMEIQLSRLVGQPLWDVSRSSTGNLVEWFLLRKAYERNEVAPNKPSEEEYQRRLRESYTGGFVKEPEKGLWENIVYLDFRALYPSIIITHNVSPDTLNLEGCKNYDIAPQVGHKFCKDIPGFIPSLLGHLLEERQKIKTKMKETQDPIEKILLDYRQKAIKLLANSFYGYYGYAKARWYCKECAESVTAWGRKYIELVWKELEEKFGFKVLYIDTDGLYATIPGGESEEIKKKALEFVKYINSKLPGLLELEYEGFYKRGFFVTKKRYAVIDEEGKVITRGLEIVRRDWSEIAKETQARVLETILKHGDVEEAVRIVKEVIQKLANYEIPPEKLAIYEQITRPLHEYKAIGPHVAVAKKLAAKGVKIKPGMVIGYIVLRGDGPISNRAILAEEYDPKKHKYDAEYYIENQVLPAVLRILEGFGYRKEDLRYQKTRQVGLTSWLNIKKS
Procedure: The effect produced by the addition of oxalate ion in PCR was investigated using nPfu polymerase. A PCR buffer (20 mM Tris-HCl (pH 8.75), 10 mM KCl, 10 mM (NH4) 2SO4, 2 mM MgSO4, 0.1% Triton X-100, 100 μg/ml BSA) attached to nPfu (STRATAGENE), 0.2 mM of dNTPs, and 0.3 μM of a pair of primers of SEQ ID NOs:12, and 13 were used. PCR was performed by using 2.5 U nPfu DNA polymerase and 20 ng of genomic DNA derived from human cell line K562 as a template, with the influence on the PCR result caused by varying the concentration of oxalate ion being investigated. PCR was performed by using GeneAmp2400 (PE Applied Biosystems) with the following conditions: 1 preliminary reaction of 94° C. for 2 minutes, and then 35 cycles of 94° C. for 15 seconds, 60° C. for 30 seconds and 68° C. for 8 minutes.
Salts (potassium chloride, potassium acetate, potassium oxalate, potassium sulfate) were tested for their effectiveness in PCR using nPfu DNA polymerase under the same conditions as Example 1-5.

KOD-plus DNA polymerase [2] = target: T2, KOD-plus DNA polymerase; assay type: biochemical, Thermococcus kodakaraensis KOD1; conditions: for amplification of target DNA (electrophoresis pattern): salt at 6 mM of ion equivalent, FIG. 9; for effect on extra bands: FIG. 10
[3] = K562 genomic DNA template, FIG. 1

T1 sequence (P19821 whole entry): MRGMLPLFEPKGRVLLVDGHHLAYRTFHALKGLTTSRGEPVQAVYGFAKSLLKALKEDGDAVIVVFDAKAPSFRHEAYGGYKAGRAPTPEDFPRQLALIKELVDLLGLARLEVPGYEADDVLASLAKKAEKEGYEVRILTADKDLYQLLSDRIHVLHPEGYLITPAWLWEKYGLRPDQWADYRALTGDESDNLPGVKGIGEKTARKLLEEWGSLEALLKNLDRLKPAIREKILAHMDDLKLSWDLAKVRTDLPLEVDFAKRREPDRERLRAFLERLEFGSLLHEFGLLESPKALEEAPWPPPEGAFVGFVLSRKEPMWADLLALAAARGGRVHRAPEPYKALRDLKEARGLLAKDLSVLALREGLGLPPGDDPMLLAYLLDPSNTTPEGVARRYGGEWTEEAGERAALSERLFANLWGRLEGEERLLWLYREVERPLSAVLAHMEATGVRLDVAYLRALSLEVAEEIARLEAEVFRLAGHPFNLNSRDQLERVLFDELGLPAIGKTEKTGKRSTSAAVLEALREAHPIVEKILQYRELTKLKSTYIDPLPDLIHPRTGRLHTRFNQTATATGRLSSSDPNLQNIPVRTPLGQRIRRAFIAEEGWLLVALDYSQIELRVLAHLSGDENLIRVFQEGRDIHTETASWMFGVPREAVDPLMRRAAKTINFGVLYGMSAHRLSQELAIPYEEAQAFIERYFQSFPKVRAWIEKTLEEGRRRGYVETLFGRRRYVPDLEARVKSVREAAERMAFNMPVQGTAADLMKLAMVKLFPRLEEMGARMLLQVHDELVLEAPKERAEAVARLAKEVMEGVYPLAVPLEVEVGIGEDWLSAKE
T2 sequence (P77933 other isoform, or with tags, fused parts or gaps DEL407-766/DEL853-1389): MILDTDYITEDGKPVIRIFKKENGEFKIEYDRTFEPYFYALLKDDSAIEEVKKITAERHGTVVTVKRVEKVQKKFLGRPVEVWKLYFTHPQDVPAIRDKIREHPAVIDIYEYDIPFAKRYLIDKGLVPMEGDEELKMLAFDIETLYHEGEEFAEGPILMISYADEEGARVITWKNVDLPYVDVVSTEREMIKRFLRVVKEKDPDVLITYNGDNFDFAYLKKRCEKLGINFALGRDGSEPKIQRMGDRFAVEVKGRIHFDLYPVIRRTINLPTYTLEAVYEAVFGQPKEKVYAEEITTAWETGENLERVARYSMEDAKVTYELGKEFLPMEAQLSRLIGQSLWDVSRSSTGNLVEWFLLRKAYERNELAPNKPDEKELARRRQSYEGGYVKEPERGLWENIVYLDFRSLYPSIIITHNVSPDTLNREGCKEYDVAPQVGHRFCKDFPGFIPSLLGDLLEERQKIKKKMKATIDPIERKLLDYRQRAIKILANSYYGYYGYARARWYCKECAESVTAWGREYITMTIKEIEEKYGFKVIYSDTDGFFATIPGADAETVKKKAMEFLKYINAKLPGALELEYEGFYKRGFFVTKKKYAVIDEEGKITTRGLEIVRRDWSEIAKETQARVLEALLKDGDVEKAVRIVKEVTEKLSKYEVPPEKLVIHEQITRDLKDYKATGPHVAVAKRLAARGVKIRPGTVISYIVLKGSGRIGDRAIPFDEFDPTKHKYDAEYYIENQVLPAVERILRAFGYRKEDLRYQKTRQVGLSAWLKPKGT

O=C(O)C(=O)O [oxalate ion]
concentration range within which the effect of the addition of oxalate ion is found (Taq DNA polymerase): up to 5 mM | PCR amplification of 4.5-kb DNA of myelin oligodendrocyte glycoprotein (Taq DNA polymerase; 1 mM oxalate ion): amplification of the target DNA was observed together with a smear | PCR amplification of 3.6-kb DNA of β-globin (Taq DNA polymerase; 2 mM oxalate ion): amplification of the target sequence was observed together with a smear | PCR amplification of 4.5-kb DNA of myelin oligodendrocyte glycoprotein (Taq DNA polymerase; 2 mM oxalate ion): no smear was observed | PCR amplification of 3.6-kb DNA of β-globin (Taq DNA polymerase; 4 mM oxalate ion): no smear was observed | oxalate ion concentration giving a discrete amplification band (Taq DNA polymerase; 3.6-kb DNA of β-globin): 4 to 5 mM | oxalate ion concentration giving a discrete amplification band (Taq DNA polymerase; 4.5-kb DNA of myelin oligodendrocyte glycoprotein): 2 to 5 mM | concentration range of oxalate ion within which the effect of the addition is found (EX-Taq DNA polymerase): up to 4 mM | oxalate ion amount at which amplification of the target DNA was confirmed (EX-Taq DNA polymerase; [3]): 1 to 4 mM | oxalate ion concentration at which the amount of amplification was the highest (EX-Taq DNA polymerase; [3]): 2 to 3 mM | concentration range within which the effect of the addition of oxalate ion is found (KOD-plus DNA polymerase [1]): up to 5 mM | concentration range within which the effect of the addition of oxalate ion is found (nPfu DNA polymerase): up to 5 mM | oxalate ion concentration at which amplification of the target DNA was observed (nPfu DNA polymerase; FIG. 6): 2 to 5 mM

CC(=O)[O-].[K+] [potassium acetate, reference compound]
amplification of target DNA (electrophoresis pattern) (KOD-plus DNA polymerase [2]): Amplification of the target DNA was not observed | amplification of target DNA (electrophoresis pattern) (nPfu DNA polymerase): amplification of the target DNA was not observed

[Cl-].[K+] [potassium chloride, reference compound]
amplification of target DNA (electrophoresis pattern) (KOD-plus DNA polymerase [2]): Amplification of the target DNA was not observed | amplification of target DNA (electrophoresis pattern) (nPfu DNA polymerase): amplification of the target DNA was not observed

O=C[O-].[K+] [potassium formate, reference compound]
amplification of target DNA (electrophoresis pattern) (EX-Taq DNA polymerase; carboxylate salts, FIG. 3): A similar effect to that produced by oxalate salts was not observed

O=C([O-])CCC(=O)[O-].[K+].[K+] [potassium succinate, reference compound]
amplification of target DNA (electrophoresis pattern) (EX-Taq DNA polymerase; carboxylate salts, FIG. 3): A similar effect to that produced by oxalate salts was not observed

O=S(=O)([O-])[O-].[K+].[K+] [potassium sulfate, reference compound]
amplification of target DNA (electrophoresis pattern) (KOD-plus DNA polymerase [2]): Amplification of the target DNA was not observed | amplification of target DNA (electrophoresis pattern) (nPfu DNA polymerase): amplification of the target DNA was not observed

O=C([O-])/C=C\C(=O)[O-].[Na+].[Na+] [sodium maleate]
effect on extra bands (KOD-plus DNA polymerase [2]; 4 mM salt): extra bands tended to decrease | effect on extra bands (KOD-plus DNA polymerase [2]; 10 mM salt): most of the extra bands disappeared

O=C([O-])CC(=O)[O-].[Na+].[Na+] [sodium malonate]
effect on extra bands (KOD-plus DNA polymerase [2]; 2 mM salt): the extra bands tended to decrease | effect on extra bands (KOD-plus DNA polymerase [2]; 6 mM salt): most of the extra bands disappeared

O=C([O-])C(=O)[O-].[Na+].[Na+] [sodium oxalate]
amplification of target DNA (electrophoresis pattern) (EX-Taq DNA polymerase; carboxylate salts, FIG. 3): amplification of the target DNA was observed | amplification of target DNA (electrophoresis pattern) (EX-Taq DNA polymerase; salt at 4 to 6 mM of ion equivalent, FIG. 2): Amplification was observed | amplification of target DNA (electrophoresis pattern) (KOD-plus DNA polymerase [2]): Amplification was observed
